Assay [1] concerns the target T1, SSTR2 (Rattus norvegicus, UniProt P30680). The assay can be described thus: Cyclic AMP accumulation, forskalin stimulated, intact cells. It is filed as cell-based. To be noted: read-out: SSTR^2 % IA (% intrinsic activity). The text has this: Cyclic AMP accumulation assays are used to determine the functional coupling of somatostatin receptors to effectors. All five cloned somatostatin receptors inhibit cyclic AMP accumulation and adenylyl cyclone activity.^1,2,3,4,5 This evaluation measures cyclic AMP accumulation from intact cells using the adrenal binding protein method. Signal transduction by somatostatin is mediated by lowering intracellular c-AMP levels. This functional assay measures the ability of the test compound to inhibit the effect of somatostatin on forskalin stimulated c-AMP levels.
Bovine adrenal gland extracts are prepared according to the method of Brown et al^6 with minor modifications. […]
Somatostatin-mediated inhibition of cyclic AMP accumulation is measured in intact cells co-incubated with the diterpene forskalin (5 μM) which activates adenylyl cyclase directly and stimulates cyclic AMP accumulation in cells. […] The cells are counted and the concentration of cells is adjusted to 50,000/70 μl and incubated 15 minutes at room temperature before starting the assay. […]

For assay [2], the target named is T2, rat somatostatin receptor subtype 2 (SSTR2) (Rattus norvegicus, UniProt P30680).
T2 construct: expressed in transfected cells; host or cells: Saccharomyces cerevisiae LY364 bearing pJH2 (SSTR2) and pLP82 (G protein)
T2 sequence (P30680 whole entry): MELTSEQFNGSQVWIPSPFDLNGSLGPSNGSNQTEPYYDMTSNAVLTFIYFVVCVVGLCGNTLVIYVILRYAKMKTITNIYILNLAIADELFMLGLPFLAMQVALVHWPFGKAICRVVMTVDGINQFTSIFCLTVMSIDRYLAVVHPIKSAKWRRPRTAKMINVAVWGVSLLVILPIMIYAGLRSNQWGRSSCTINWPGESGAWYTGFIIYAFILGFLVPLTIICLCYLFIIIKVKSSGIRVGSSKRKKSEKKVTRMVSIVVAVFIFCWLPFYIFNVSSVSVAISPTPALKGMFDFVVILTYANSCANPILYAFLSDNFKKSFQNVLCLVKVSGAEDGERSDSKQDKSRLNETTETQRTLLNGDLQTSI
Put plainly: Yeast assay, somatostatin agonist activity (zone of growth of modified yeast cells). Type of assay: cell-based. On the set-up: key: 1 is minimum agonist activity; 5 is maximum agonist activity; --: When no activity is observed, the result is indicated by a dash. The following applies: rating on a scale of 1-5 from zone of growth; S. cerevisiae LY364 expressing rat SSTR2. Here is the method: (§1) In this evaluation, yeast cells which have been specifically modified to functionally express rat somatostatin receptor subtype 2 (SSTR2) on their cell surfaces are used. S. Cerevisiae LY364 cells are plated in a standard synthetic agar medium which lacks histidine. In the absence of a somatostatin receptor agonist, the auxotrophic (his3) cells are unable to grow. In the presence of somatostatin, or a somatostatin agonist, the expression of an enzyme (His3p: imidazole-glycerol phosphate dehydratase) which is essential for histidine biosynthesis is induced. The cells become competent to produce histidine, resulting in a zone of growing cells around the applied test compound. The zone is measured and the test compound is given an agonist rating on a scale of 1-5 wherein 1 is minimum agonist activity and 5 is maximum agonist activity.
1) Inoculate 2 mL SCD-ura-trp liquid medium in Falcon 2051 tube with a single colony taken from a plate containing LY364 (MATa ura3-52 leu2 his3 trp1 lys2 ade2 far1:: LYS2 fus1:: FUS1-HIS3 gpa1::hisG sst2::.ADE2 bearing the SSTR2 expression plasmid, pJH2, and the G protein expression plasmid, pLP82) cells.
3) Add 1 mL of LY364 culture to 1 liter of agar medium.
8) Incubate plates at 30° C.
Day 5. Begin checking plates for growth around applied compounds.
(§2) Day 7. Growth in response to somatostatin should be readily observable. Rate extent of growth or inhibition of growth according to rating scale described hereinabove.

Assay [3] addresses T2, rat somatostatin receptor subtype 2 (SSTR2). Put plainly: Yeast assay, somatostatin antagonist activity (zone of no growth in presence of S-14). Details: key: 1 is minimum antagonist activity; 5 is maximum antagonist activity; --: When no activity is observed, the result is indicated by a dash. The following applies: rating on a scale of 1-5 from zone of no growth; 5 μL of 1 mg/mL S-14 added to each plate. Type of assay: cell-based. As to the method: as §1
To evaluate the somatostatin antagonist activity of a test compound, the above procedure is followed except on day 3, 5 μL of 1 mg/mL of somatostatin, S-14, is added to each plate, before applying the test compound. If the test compound is an antagonist of somatostatin, then a zone of no growth will appear within the cell growth zone. This zone of no growth is measured and the test compound is given an antagonist rating on a scale of 1-5 wherein 1 is minimum antagonist activity and 5 is maximum antagonist activity.
The results are shown in Table I. When no activity is observed, the result is indicated by a dash.
On day 3, add 5 μL 1 mg/mL S-14 to each plate.
as §2

The target in assay [4] is T1, SSTR2. Put plainly: Competitive binding, displacement of [125I]Tyr11 S-14. On the set-up: expressed in transfected cells; membrane protein. To be noted: for Ki: calculated by method of Cheng and Prusoff, read-out: SSTR2 Binding Affinity Ki; for IC50: displacement of [125I]Tyr11 S-14, 250 pM, room temperature, 2 hours, read-out: SSTR2 Binding Affinity IC50. Here is the method:
In this evaluation the concentration of test compound required to displace 50% of somatostatin, SRIF, from the SRIF receptor subtypes expressed in mammalian cells is measured, i.e., the concentration required to inhibit 50% of [^125 I] Tyr^11 S-14 (Amersham) (IC50) from binding to the SRIF receptor subtypes.
Radiolabeled SRIF is mixed with pituitary cells, the test compound is added, the mixture is incubated and the radioactivity is measured as compared to control. Reduced radioactivity indicates successful competitive binding of the test compound to the pituitary cell receptor. The concentration of the test compound in nanomolar units required to displace 50% of SRIF from the pituitary cell receptor is calculated and reported in Table II as the IC50 value. Also calculated is the inhibitory constant, Ki.
Tyr^11 S-14 (150,000 cpm at 2000 Ci/mmole, 250 pM final concentration). The binding reaction is initiated by adding 2-60 μg of membrane protein in a 170 μL volume. Final reaction volume is 200 μl/well. All incubations are carried out at room temperature for 2 hours. Free radioligand is separated from bound ligand by rapid filtration through a glass fiber filter (IH-201-HA) using an Inotech cell harvester. The filter is then washed several times with cold (4° C.) binding buffer lacking BSA and protease inhibitors prior to counting in an LKB gamma master counter (78% efficiency). Whatman GFC filters presoaked in 0.3% polyethylenimine (to decrease background) are used.
The IC50 values and Ki values are calculated using the well-known methods described by Y. Cheng and W. H. Prusoff, Biochem. Pharmacol. 22, 3099-3108 (1973), incorporated herein by reference thereto.

Positions of bridges follow the written chain, without caps; N, C: chain ends. Non-standard residues stand in square brackets, D forms with d. Residues, ends and D or L forms follow the SMILES beside them. NMePhe(4-NO2) = CN[C@@H](Cc1ccc([N+](=O)[O-])cc1)C(=O)O; Phe(4-NO2) = N[C@@H](Cc1ccc([N+](=O)[O-])cc1)C(=O)O; 2Nal = N[C@@H](Cc1ccc2ccccc2c1)C(=O)O

T1 sequence (P30680 whole entry): as above

Consider `C[C@@H](O)[C@@H]1NC(=O)[C@H](CCCCN)NC(=O)[C@@H](Cc2c[nH]c3ccccc23)NC(=O)[C@H](Cc2ccc(O)cc2)NC(=O)[C@H](NC(=O)[C@@H](N)Cc2ccc(I)cc2)CSSC[C@@H](C(=O)N[C@@H](Cc2ccc(O)cc2)C(N)=O)NC1=O` [4-IPhe Tyr Lys Thr Tyr], for which, at SSTR2 [1], the Emax was -12%. Further, the “Yeast Assay Agonist” value in assay [2] is listed as “--”. Besides, the “Yeast Assay Antagonist” value in assay [3] stood at 5.

Take `NCCCC[C@@H]1NC(=O)[C@@H](Cc2c[nH]c3ccccc23)NC(=O)[C@H](Cc2ccc(O)cc2)NC(=O)[C@H](NC(=O)[C@@H](N)Cc2ccc([N+](=O)[O-])cc2)CSSC[C@@H](C(=O)N[C@@H](Cc2ccc3ccccc3c2)C(N)=O)NC(=O)[C@H](CO)NC1=O` [4-NO2 Phe Tyr Lys Ser Nal(2)] (H-[Phe(4-NO2)][dC]Y[dW]KSC[2Nal]-NH2; disulfide 2-7 (inferred); N-terminus and C-terminus assumed): the Emax on SSTR2 [1] was 7%. Moreover, the “Yeast Assay Agonist” value in assay [2] is listed as “--”. Further, in assay [3], the “Yeast Assay Antagonist” value was found to be 3.

As for `CC(C)[C@@H]1NC(=O)[C@H](CCCCN)NC(=O)[C@@H](Cc2c[nH]c3ccccc23)NC(=O)[C@H](Cc2ccc(O)cc2)NC(=O)[C@H](NC(=O)[C@@H](N)Cc2ccc3ccccc3c2)CSSC[C@@H](C(=O)N[C@@H](Cc2ccc(O)cc2)C(N)=O)NC1=O` [L-Nal(2) Tyr Lys Val Tyr] (H-[2Nal][dC]Y[dW]KVCY-NH2; disulfide 2-7), on SSTR2 [4], the Ki is 2.22 nM and the IC50 was 5 nM. Besides, in assay [2], the “Yeast Assay Agonist” value is recorded as “--”. In addition, in assay [3], the “Yeast Assay Antagonist” value is reported as 3.

`CN[C@@H](Cc1ccc([N+](=O)[O-])cc1)C(=O)N[C@@H]1CSSC[C@@H](C(=O)N[C@@H](Cc2ccc(O)cc2)C(N)=O)NC(=O)[C@H](C(C)C)NC(=O)[C@H](CCCCN)NC(=O)[C@@H](Cc2c[nH]c3ccccc23)NC(=O)[C@H](Cc2ccc(O)cc2)NC1=O` [NMe-4-NO2 Phe Tyr Lys Val Tyr] (H-[NMePhe(4-NO2)][dC]Y[dW]KVCY-NH2; disulfide 2-7 (inferred); N-terminus and C-terminus assumed): on SSTR2 [4], the Ki is 2.67 nM and the IC50 is 6 nM. The “Yeast Assay Agonist” value in assay [2] is “--”. For the same compound, the “Yeast Assay Antagonist” value in assay [3] is on record as 5.

What is called Ki is a dissociation constant, usually derived from enzyme kinetics or from competition with a known ligand. A word on the IC50: it is the midpoint of a concentration-inhibition curve.

The values are drawn from US5846934A, “Pure somatostatin antagonist and methods of use thereof” (American Cyanamid Company, priority 1997, dated 1998).
